Assay results reported in US10065957B2, “Beta-lactamase inhibitors” (Novartis AG, priority 2016, dated 2018).

What was measured:
Format in all cases: cell-based
[1] = test system: E. coli (TEM-10); test: microbe, parasite or virus in culture; conditions: Escherichia coli, Pip alone, read-out: MIC of piperacillin
Procedure: (§1) MICs were determined by the broth microdilution method in accordance with Clinical and Laboratories Institute (CLSI) guidelines. In brief, fresh overnight bacterial cultures were suspended in sterile saline, and adjusted to a 0.5 McFarland turbidity standard. Bacterial suspensions were then diluted in cation adjusted Mueller-Hinton Broth (MHB II; BBL) to yield a final inoculum of approximately 5×10^5 colony-forming units (CFU)/mL. A master plate of antibiotics was prepared at a concentration equivalent to hundred-fold the highest desired final concentration in 100% dimethyl sulfoxide (DMSO). The master antibiotic plate was then diluted by serial twofold dilution with a multichannel pipette. The resulting dilution series of compounds were diluted 1:10 with sterile water or a solution of beta-lactamase inhibitor prepared at a concentration equivalent to eleven-fold the desired final concentration in deionized water leading to a 10% DMSO final concentration. A volume of 10 μL of the drug dilution series was transferred to 96-well assay plates. Assay plates were inoculated with 90 μL of bacterial suspensions and incubated at 35° C. for 20 hrs. The assay plates were read using a microtiter plate reader (Molecular Devices) at 600 nm as well as by visual observation with a reading mirror. The lowest concentration of the compound that prevented visible growth was recorded as the MIC.
(§2) Synergy or potentiation of beta-lactam antibiotics through inhibition of Q-lactamases was assessed against an isogenic panel of E. coli strains, each expressing a unique beta-lactamase, and against clinical strains.
(§3) Construction of E. coli isogenic strains, NB27273-CDY0105 (OXA-18) and NB27273-CDY0048 (TEM-10). […] The gene encoding OXA-18 was then digested with XhoI and EcoRI and inserted into this vector, from which the gene for GIM-1 had been removed with XhoI and EcoRI.
From this template DNA, three fragments were generated by PCR using the following primer pairs;
This fragment was then digested with XbaI and EcoRI and inserted into pBAD-kan which was also cut with the same enzymes.
(§4) These final vectors for expression of OXA-18 and TEM-10 were transformed into BW25113 pspB to generate strains NB27273-CDY0105 (expressing OXA-18) and NB27273-CDY0048 (expressing TEM-10).

[2] = test system: E. coli (CTX-M-15); test: microbe, parasite or virus in culture; conditions: Escherichia coli, Pip alone, read-out: MIC of piperacillin
Procedure: as §1, §2
(§5) Strain NB27273 (BW25113 pspB::Km^r) was obtained from the Keio transposon insertion collection. The strain has the pspB gene replaced by a kanamycin resistance marker (BW25113 pspB::Km^r). This strain was cured of the transposon in pspB via FLP recombinase using published methodology. The resulting strain, BW25113 pspB, was used as a host for multicopy vectors expressing key beta-lactamases. Multicopy plasmids directing constitutive expression of beta-lactamases were established as follows: Synthetic, codon optimized genes encoding E. coli KPC-2, SHV-12 and CTX-M-15 beta-lactamases were made by DNA2.0 (Palo Alto, Calif.). Each of the synthetic fragments were designed to contain NotI and NcoI restriction sites at their termini, allowing ligation into a NotI/NcoI digested pET28a(+) derivative for protein expression. […] The codon optimized nucleotide sequences and relevant primer recognition information is shown below:
(§6) The PCR products were then digested with XhoI and EcoRI and ligated into similarly digested plasmid pAH63-pstS(BlaP). […] Therefore, expression of beta-lactamases from pAH63-pstS(BlaP) based constructs is constitutive and the signal sequence is provided to direct these proteins to the periplasm. […] These fragments were then digested with XbaI and EcoRI, and each was inserted into pBAD18-kan that had been digested with the same enzymes to generate multicopy vectors expressing KPC-2, SHV-12 and CTX-M-15, respectively. These vectors were transformed into BW25113 pspB to generate strains NB27273-CDY0033 (expressing KPC-2), NB27273-CDY0030 (expressing SHV-12), NB27273-CDY0034 (expressing CTX-M-15) and NB27273-CDY0036 (expressing AmpC). The pBAD18-kan vector also contains the TEM promoter region and signal sequence, (but lacks any intact beta-lactamase genes) and was transformed into BW25113 pspB using standard protocols to generate the control strain NB27273-CDY0026.

[3] = test system: E. coli (KPC-2); test: microbe, parasite or virus in culture; conditions: Escherichia coli, read-out: MIC of piperacillin
Procedure: as §1, §2, §5, §6

[4] = test system: E. coli (SHV-12); test: microbe, parasite or virus in culture; conditions: Escherichia coli, Pip alone, read-out: MIC of piperacillin
Procedure: as §1, §2, §5, §6

[5] = test system: E. coli (AmpC); test: microbe, parasite or virus in culture; conditions: Escherichia coli, Pip alone, read-out: MIC of piperacillin
Procedure: as §1, with “MIC. Performance of the assay was monitored by testing aztreonam against laboratory quality control strains in accordance with guidelines of the CLSI.” for “MIC.”
as §2
The gene encoding AmpC was PCR amplified from the genome of strain P. aeruginosa PAO1 (NB52019) (GenBank ID U5R279) using primer pair E252 (gccCTCGAGggcgaggccccggcggatcgc) (SEQ ID NO: 17) and E253 (tgaGAATTCtcagcgcttcagcggcacct) (SEQ ID NO: 18).
The PCR products were then digested with XhoI and EcoRI and ligated into similarly digested plasmid pAH63-pstS(BlaP). Plasmid pAH63-pstS(BlaP) is a derivative of plasmid pAH63 (J Bacteriol: 183(21): 6384-6393) made by cloning the TEM-1 (bla) promoter and signal peptide encoding region from plasmid pBAD (J Bacteriol. 1995 July 177(14):4121-30) into plasmid pAH63. This fragment was PCR amplified from pBAD using primer pair E192 (ttcaCTGCAGtgaacgttgcgaagcaacggC) (SEQ ID NO:19) and E194 (TCGAggatcctcgagagcaaaaacaggaaggcaaaatgccg) (SEQ ID NO:20), digested with PstI and BamHI and inserted into similarly digested plasmid pAH63. Therefore, expression of beta-lactamases from pAH63-pstS(BlaP) based constructs is constitutive and the signal sequence is provided to direct these proteins to the periplasm. Plasmid pAH63 based vectors are used for insertion into the genome in single copy, however, to provide higher expression levels to allow more sensitive detection of the susceptibility of compounds to the expressed beta-lactamases, the expression inserts contained in these vectors were moved to the replicative multicopy vector pBAD-Kan (J Bacteriol. 1995 July 177(14):4121-30). To accomplish this, the inserts encompassing the beta-lactamase genes, with the associated TEM promoter and signal sequences, were PCR amplified from their corresponding vectors using primer E268 (ccgTCTAGAcggatggcctttttgcgtttc) (SEQ ID NO:21) and E202 (aatcGAATTCttactgaccattaacgcccaagc) (SEQ ID NO:22) for the KPC2 construct, E204 (aatcGAATTCttaacgctgccagtgctcaatc) (SEQ ID NO:23) for the SHV-12 construct and E203 (aatcGAATTCttacagaccgtcggtgacaatc) (SEQ ID NO:24) for the CTX-M-15 construct. These fragments were then digested with XbaI and EcoRI, and each was inserted into pBAD18-kan that had been digested with the same enzymes to generate multicopy vectors expressing KPC-2, SHV-12 and CTX-M-15, respectively. […]

[6] = test system: K. pneumoniae NB29082 (KPC-2); test: Potentiation of piperacillin in beta-lactam resistant clinical isolate
Procedure: as §1, with “MIC. Performance of the assay was monitored by testing aztreonam against laboratory quality control strains in accordance with guidelines of the CLSI.” for “MIC.”
as §2

[7] = test system: S. aureus NB01437 (BLA+); test: as above
Procedure: as §1, with “MIC. Performance of the assay was monitored by testing aztreonam against laboratory quality control strains in accordance with guidelines of the CLSI.” for “MIC.”
as §2

[8] = test system: Enterobacter cloacae NB25055 (CMY-2); test: as above
Procedure: as §1, with “MIC. Performance of the assay was monitored by testing aztreonam against laboratory quality control strains in accordance with guidelines of the CLSI.” for “MIC.”
as §2

[9] = test system: E. coli (OXA-18); test: microbe, parasite or virus in culture
Procedure: as §1, §2, §3, §4

SMILES	MIC [1] [µg/mL]	MIC [2] [µg/mL]	MIC [3] [µg/mL]	MIC [4] [µg/mL]	MIC [5] [µg/mL]	Activity of piperacillin ([6]; piperacillin alone) [µg/mL]	Activity of piperacillin ([7]; piperacillin alone) [µg/mL]	Activity of piperacillin ([8]; piperacillin alone) [µg/mL]	MIC ([9]; Escherichia coli, Pip alone, read-out: MIC of piperacillin) [µg/mL]	Activity of piperacillin with beta-lactamase inhibitor ([6]; Pip + BLI at 4 μg/mL) [µg/mL]	Activity of piperacillin with beta-lactamase inhibitor ([7]; Pip + BLI at 4 μg/mL) [µg/mL]	Activity of piperacillin with beta-lactamase inhibitor ([8]; Pip + BLI at 4 μg/mL) [µg/mL]	MIC of piperacillin with beta-lactamase inhibitor ([9]; Pip + BLI at 4 μg/mL) [µg/mL]
CCN1CCN(C(=O)N[C@@H](C(=O)N[C@@H]2C(=O)N3C2SC(C)(C)[C@@H]3C(=O)O)c2ccccc2)C(=O)C1=O (stereo partly shown) [Piperacillin]	> 32	> 32	> 32	> 32	> 32	>64	64	>64	> 32				
C[C@]1(Cn2ccnn2)[C@H](C(=O)O)N2C(=O)C[C@H]2S1(=O)=O [Tazobactam]										>64	1	64	8
